According to patent US20200016207A1, “[…] c-MPL PROVIDES LIGAND-DEPENDENT CO-STIMULATION AND CYTOKINE SIGNALS TO TCR-ENGINEERED T CELLS” (Baylor College of Medicine, priority 2017, published 2020):

Key:
c-MPL+ T cells = assay: EP dose-titration, T cell expansion on OKT3/CD28-coated plates; assay type: cell-based, human
Experimental: Similar results were obtained with the TPO small molecule agonist EP. A dose-titration experiment was used to determine the optimal concentration of EP to support c-MPL+ T cell expansion (FIG. 2C). EP was previously shown to inhibit leukemia cell proliferation at higher concentrations (1-10 μg/ml) by reduction of intracellular iron, a c-MPL independent effect (Roth et al., 2012). NT or c-MPL+ T cells were re-activated on OKT3/CD28-coated plates in the presence of different EP concentrations and expansion of viable T cells was determined after 7 days. […] Thus, the effective EP concentration for c-MPL+ T cells was about 1 log lower than in previous reports assessing effects of EP on megakaryocytic progenitor cells or leukemia cells *Roth et al., 2012; Will et al., 2009). To assess c-MPL ligand-dependent signaling in TCR+c-MPL+ T cells, cells were left untreated (noCK) or treated with TPO50 or EP for 1 (left) or 24 hours (right). […] Next, it was evaluated whether rhTPO enhanced the anti-tumor function of TCR+c-MPL+ T cells using two different HLA-A*0201+survivin+hematologic malignancies as targets (U266 multiple myeloma, BV173 leukemia) (FIGS. 2E-2F). […] Again, addition of IL2 led to significant but antigen-independent enhancement of T cell expansion.

[1] = tested on: immune synapses between TCR+c-MPL+ T cells and BV173 leukemia cells; assay: Immunological synapse imaging (confocal microscopy); assay type: cell-based, human; settings: mean±SD
Experimental: T cells isolated from sequential killing co-cultures and fresh BV173 target cells were mixed at E:T 1:2, incubated for 10 minutes, fixed, permeabilized, stained with the appropriate antibodies, and analyzed on a Leica TCS SP8 laser scanning microscope. T cells were co-cultured with BV173 cells at an E:T ratio of 1:5 in CTL media with no cytokines, rhTPO (50 ng/mL) or EP (0.1 μg/mL). After one killing (no cytokine condition) or three sequential killings (rhTPO and EP conditions), cells were collected and dead cells removed (Dead Cell Removal Kit, Miltenyi) (FIG. 4A). For confocal microscopy, T cells and fresh BV173 target cells were mixed at E:T ratio of 1:2, incubated for ten minutes in a tube and ten minutes on silane-coated glass slides (Electron Microscopy Sciences) at 37° C. Cells were then permeabilized and fixed with Perm/Fix solution (BD) for 15 minutes at room temperature and stained with anti-Pericentrin (rabbit, Abcam) and anti-Perforin Alexa-488 (mouse, BD Biosciences) primary antibodies. Phalloidin 568 (Life Technologies) was used to detect F-actin. Cells were imaged as Z stacks of 0.2 μm thickness to cover their entire volume on a Leica TCS SP8 laser scanning microscope using a 100× objective. Images were acquired with the LASAF software (Leica) and analyzed with Imaris software (Imaris) and Fiji.

[2] = after three tumor cell challenges
[3] = baseline after T cell expansion

Structure (SMILES): CC1=NN(c2ccc(C)c(C)c2)C(=O)/C1=N\Nc1cccc(-c2cccc(C(=O)O)c2)c1O [EP, eltrombopag, reference compound]
- effect of EP treatment at 3 μg/ml on T cells (c-MPL+ T cells; 3 μg/ml): uniformly lethal to T cells
- effect of EP levels higher than 0.1 μg/ml on T cells (c-MPL+ T cells; 7 days): toxic to the T cells
- EP concentration retained to support c-MPL+ T cell expansion (c-MPL+ T cells; 7 days, OKT3/CD28-coated plates): 0.1 µg/mL
- MTOC to synapse distance, co-culture [1, 2]: 1.09±1.16 μm
- perforin distance to the synapse (perforin convergence), co-culture [1, 2]: 4.25±1.28 μm
- actin accumulation at the synapse, co-culture ([1]; after three tumor cell challenges, rhTPO 50 ng/mL or EP 0.1 μg/mL): 53.29±12.47%
- MTOC to synapse distance, baseline [1, 3]: 2.42±2.14 μm
- actin accumulation at the synapse, baseline [1, 3]: 40.95±14.82%
- perforin distance to the synapse (perforin convergence), baseline [1, 3]: 4.26±2.04 μm
